Laboratory results reported in patent publication US20160000734A1, “METHOD AND COMPOSITIONS OF CIVAMIDE TO TREAT DISEASE OF THE INTESTINES” (WINSTON LABORATORIES, INC., priority 2010, published 2016).
Where two headings read alike, the source gives them in different places.

How the values were obtained:
[1] = system: normal volunteers; test: Abdominal distress / gastrointestinal discomfort after oral capsules in normal human volunteers; assay type: in vivo; conditions: soft gel capsules (not enteric coated)
[2] = rodents; cited from earlier work
[3] = dogs; cited from earlier work
[4] = system: Chung animal model; conditions: oral civamide; cited from earlier work
[5] = system: Formalin animal model; conditions: oral civamide; cited from earlier work
[6] = system: hot-plate animal model; conditions: oral civamide; cited from earlier work
[7] = cited from earlier work; for efficacy in painful, inflammatory or allergic disorders: compared with capsaicin compositions; for localized burning and stinging / local adverse effects: compared with capsaicin

## COc1cc(CNC(=O)CCCC/C=C\C(C)C)ccc1O [civamide, cis-8-methyl-N-vanillyl-6-nonenamide]
[1]
  abdominal distress / local burning and discomfort in the gastrointestinal tract: more local burning and discomfort in the gastrointestinal tract than comparable dosages of capsaicin
[2]
  absorption of an administered oral dose: 8-12%
[3]
  absorption of an administered oral dose: 8-12%
[4]
  analgesia: effective analgesia
[5]
  analgesia: effective analgesia
[6]
  analgesia: effective analgesia
[7]
  efficacy in painful, inflammatory or allergic disorders: comparable in efficacy
  localized burning and stinging / local adverse effects: significantly less local adverse effects
[7]; listed as Civamide
  efficacy in painful, inflammatory or allergic disorders: effective
  localized burning and stinging / local adverse effects: significantly less of the localized burning and stinging
